The values below come from ChEMBL document CHEMBL4483862, “Open-source discovery of chemical leads for next-generation chemoprotective antimalarials” (2018).

The term pIC50 denotes −log10 of the IC50, conventionally taken in molar units. As usually defined, the IC90 is the concentration at which the effect reaches the 90% level.

pIC50: −log10 of the molar value.

This test relates to Plasmodium berghei. Nature of the test: Luciferase/luciferin-expressing antifolate-resistant parasites were used to infect a culture of HepG2 cells that were pre-incubated with compounds. Infected hepatocytes emit light due to the luciferase reaction. Assay results are presented as the percent inhibition of light emission compared to control. […]. Format: functional. Conditions: sporozoite; for IC90: read-out: LUCIFERASE INFECTION ASSAY - IC90.

As to `OC(c1ccc(Cl)c(F)c1)c1nc(-c2cccc(C(F)(F)F)c2)c[nH]1` (stereo unspecified), the IC90 is more than 8.9 µM. Further, the pIC50 (FFLUC_HILL_SLOPE 12.1, FFLUC_R_SQUARED 0.0756, read-out: LUCIFERASE INFECTION ASSAY - IC50) is less than 5.05.
With `Cc1cc(-c2onc(C)c2C(=O)Sc2ccccc2)no1`, the IC90 is more than 11 µM. Further, for the setting “FFLUC_HILL_SLOPE 12.1, FFLUC_R_SQUARED 0.567, PBLUC_HILL_SLOPE 1.05, PBLUC_R_SQUARED 0.41, read-out: LUCIFERASE INFECTION ASSAY - IC50”, the pIC50 is less than 4.96.
Regarding `Oc1c(C(Nc2ncccn2)c2ccc(F)cc2)ccc2cccnc12` (stereo unspecified), the IC90 was found to be 3.55 µM. For the same molecule, the pIC50 (FFLUC_HILL_SLOPE 12.3, FFLUC_R_SQUARED 0.0325, HEPG2TOX_HILL_SLOPE 1.16, HEPG2TOX_R_SQUARED 0.848, PBLUC_HILL_SLOPE 14, PBLUC_R_SQUARED 0.306, read-out: LUCIFERASE INFECTION ASSAY - IC50) was 5.52.
Regarding `CCOC(=O)c1c(C)[nH]c(C(=O)Nc2nc(-c3c(C)cc(C)cc3C)cs2)c1C`, the IC90 worked out at 9.66 µM. Besides, the pIC50 (FFLUC_HILL_SLOPE 12.1, FFLUC_R_SQUARED 0.461, HEPG2TOX_HILL_SLOPE 1.22, HEPG2TOX_R_SQUARED 0.98, PBLUC_HILL_SLOPE 1.25, PBLUC_R_SQUARED 0.783, read-out: LUCIFERASE INFECTION ASSAY - IC50) is 5.78.
With `CC1CCN(/C(=N/S(=O)(=O)c2ccc(-n3nc(C(F)(F)F)cc3-c3cccs3)cc2)N/N=C/c2ccc(Cl)cc2)CC1`, the IC90 was more than 5.2 µM. Further, the pIC50 (FFLUC_HILL_SLOPE 12.3, FFLUC_R_SQUARED 0.48, read-out: LUCIFERASE INFECTION ASSAY - IC50) is less than 5.28.
Consider `O=C(COc1ccccc1C(=O)Nc1ccccc1)NC(c1ccc(F)cc1)c1cccs1` (stereo unspecified), for which the 90% effect concentration (IC90) was more than 10 µM. For the same molecule, the pIC50 (FFLUC_HILL_SLOPE 12.2, FFLUC_R_SQUARED 0.17, PBLUC_HILL_SLOPE 2.56, PBLUC_R_SQUARED 0.393, read-out: LUCIFERASE INFECTION ASSAY - IC50) was 5.15.
Take `Cc1cccc(N/N=C2\C=NN=C2c2ccc(Br)cc2)c1`: the IC90 is more than 9.67 µM. For the same molecule, the pIC50 (FFLUC_HILL_SLOPE 12.3, FFLUC_R_SQUARED 0.435, HEPG2TOX_HILL_SLOPE 0.345, HEPG2TOX_R_SQUARED 0.819, PBLUC_HILL_SLOPE 10.9, PBLUC_R_SQUARED 0.46, read-out: LUCIFERASE INFECTION ASSAY - IC50) was 5.04.
For the molecule `c1ccc2c3c(ccc2c1)CCc1ccc2ccccc2c1-3`, the IC90 was more than 11.8 µM. The pIC50 (FFLUC_HILL_SLOPE 12.1, FFLUC_R_SQUARED 0.622, read-out: LUCIFERASE INFECTION ASSAY - IC50) is less than 4.93.
On to `COc1ccc(N(Cc2cn(-c3ccccc3)nc2-c2ccc(Cl)cc2)S(=O)(=O)c2ccccc2)cc1`, for which the IC90 is more than 10 µM. The pIC50 (FFLUC_HILL_SLOPE 12.1, FFLUC_R_SQUARED 0.616, PBLUC_HILL_SLOPE 4, PBLUC_R_SQUARED 0.331, read-out: LUCIFERASE INFECTION ASSAY - IC50) is 5.12.
As for `CCN(C(=O)CSc1nc2ccccc2c(=O)n1-c1ccc(C(C)C)cc1)c1cccc2ccccc12`, the IC90 stood at 9.59 µM. Besides, the pIC50 (FFLUC_HILL_SLOPE 12.2, FFLUC_R_SQUARED 0.564, PBLUC_HILL_SLOPE 2.95, PBLUC_R_SQUARED 0.421, read-out: LUCIFERASE INFECTION ASSAY - IC50) is 5.34.
With `O=c1c2c3c(sc2nc(SCc2cc(=O)n4ccsc4n2)n1-c1ccccc1C(F)(F)F)CCCCC3`, the IC90 was more than 10 µM. The pIC50 (FFLUC_HILL_SLOPE 12.2, FFLUC_R_SQUARED 0.743, read-out: LUCIFERASE INFECTION ASSAY - IC50) was less than 5.00.
As to `Cc1c(OCC(=O)NCc2ccccn2)ccc2c1oc(=O)c1ccccc12`, the IC90 is more than 8.81 µM. Moreover, for the setting “FFLUC_HILL_SLOPE 12.1, FFLUC_R_SQUARED 0.777, PBLUC_HILL_SLOPE 13, PBLUC_R_SQUARED 0.252, read-out: LUCIFERASE INFECTION ASSAY - IC50”, the pIC50 is 5.09.
On to `COc1ccc(/N=c2\scc(-c3ccc(OC(F)F)cc3)n2/N=C/c2ccccc2[N+](=O)[O-])cc1`, for which the IC90 was determined as 7.35 µM. Besides, the pIC50 (FFLUC_HILL_SLOPE 12.1, FFLUC_R_SQUARED 0.633, PBLUC_HILL_SLOPE 109, PBLUC_R_SQUARED 0.183, read-out: LUCIFERASE INFECTION ASSAY - IC50) was 5.14.
For the molecule `COc1cc(N(CC(=O)Nc2ccc(Cl)cc2)S(=O)(=O)c2ccc(Cl)cc2)c(Cl)cc1Cl`, the IC90 is more than 6.18 µM. The pIC50 (FFLUC_HILL_SLOPE 12.3, FFLUC_R_SQUARED 0.349, HEPG2TOX_HILL_SLOPE 3.41, HEPG2TOX_R_SQUARED 0.407, PBLUC_HILL_SLOPE 12, PBLUC_R_SQUARED 0.0202, read-out: LUCIFERASE INFECTION ASSAY - IC50) is 5.25.
On to `CC(C)(C)c1cc(C(=O)OCC(=O)N2CCCc3ccccc32)cc(C(C)(C)C)c1`, for which the IC90 was 9.87 µM. For the same molecule, where the note is “FFLUC_HILL_SLOPE 12.2, FFLUC_R_SQUARED 0.329, PBLUC_HILL_SLOPE 3.02, PBLUC_R_SQUARED 0.491, read-out: LUCIFERASE INFECTION ASSAY - IC50”, the pIC50 is 5.32.
As for `CCOc1ccc(-n2c(SC(C)C(=O)c3ccc(C(C)C)cc3C(C)C)nnc2-c2c[nH]c3ccccc23)cc1` (stereo unspecified), the IC90 was more than 10 µM. Further, the pIC50 (FFLUC_HILL_SLOPE 12.2, FFLUC_R_SQUARED 0.489, PBLUC_HILL_SLOPE 1.92, PBLUC_R_SQUARED 0.281, read-out: LUCIFERASE INFECTION ASSAY - IC50) was 5.24.
`Cc1ccc(NS(=O)(=O)c2ccc(C(=O)Nc3ncccc3O)cc2)cc1C`: the IC90 was found to be 1.88 µM. For the same molecule, the pIC50 (FFLUC_HILL_SLOPE 12.3, FFLUC_R_SQUARED 0.189, HEPG2TOX_HILL_SLOPE 11.2, HEPG2TOX_R_SQUARED 0.187, PBLUC_HILL_SLOPE 1.78, PBLUC_R_SQUARED 0.764, read-out: LUCIFERASE INFECTION ASSAY - IC50) was 6.26.
For the molecule `COc1cc2c(cc1OC)C(c1cccs1)N(C(=O)CC1CCCC1)CC2` (stereo unspecified), the IC90 is more than 10 µM. Where the note is “FFLUC_HILL_SLOPE 12.1, FFLUC_R_SQUARED 0.331, HEPG2TOX_HILL_SLOPE 1.22, HEPG2TOX_R_SQUARED 0.987, PBLUC_HILL_SLOPE 1.62, PBLUC_R_SQUARED 0.49, read-out: LUCIFERASE INFECTION ASSAY - IC50”, the pIC50 was 5.54.
For `CCCCn1c(N)c(N(C)CC(=O)Nc2scc(-c3ccccc3)c2C(=O)OCC)c(=O)[nH]c1=O`, the IC90 was 8.26 µM. Also, the negative logarithm of the IC50 (pIC50) (FFLUC_HILL_SLOPE 12.3, FFLUC_R_SQUARED 0.419, PBLUC_HILL_SLOPE 4.64, PBLUC_R_SQUARED 0.375, read-out: LUCIFERASE INFECTION ASSAY - IC50) is 5.29.
In the case of `Nn1c(SCc2cc(F)cc3c2OC(c2ccccc2)OC3)nnc1-c1ccc(OC(F)F)cc1` (stereo unspecified), the IC90 is more than 10 µM. For the same molecule, where the note is “FFLUC_HILL_SLOPE 12.2, FFLUC_R_SQUARED 0.768, read-out: LUCIFERASE INFECTION ASSAY - IC50”, the pIC50 is less than 5.00.
With `O=C(CCc1ccc(-c2ccccc2)o1)Nc1nc(-c2ccccn2)cs1`, the IC90 was more than 10 µM. Where the note is “FFLUC_HILL_SLOPE 12.1, FFLUC_R_SQUARED 0.705, read-out: LUCIFERASE INFECTION ASSAY - IC50”, the pIC50 was less than 5.00.
As to `Cc1ccc(N2C(=O)/C(=C\Nc3cc(Cl)ccc3[N+](=O)[O-])c3ccccc3C2=O)c(C)c1`, the IC90 is more than 10 µM. Moreover, the pIC50 (FFLUC_HILL_SLOPE 12.2, FFLUC_R_SQUARED 0.8, read-out: LUCIFERASE INFECTION ASSAY - IC50) is less than 5.00.
In the case of `CCc1cccc(CC)c1N(C(C)=O)c1nc(/C=C/C(=O)c2ccc3c(c2)OCCO3)cs1`, the IC90 turned out to be 3.81 µM. The pIC50 (FFLUC_HILL_SLOPE 12.1, FFLUC_R_SQUARED 0.466, HEPG2TOX_HILL_SLOPE 15.2, HEPG2TOX_R_SQUARED 0.81, PBLUC_HILL_SLOPE 12.5, PBLUC_R_SQUARED 0.644, read-out: LUCIFERASE INFECTION ASSAY - IC50) is 5.49.
With `CC1=C(C(=O)OCc2ccccc2)C(c2ccccc2OC(C)C)CC(=O)N1` (stereo unspecified), the IC90 is more than 8.7 µM. Also, the negative-log IC50 (pIC50) (FFLUC_HILL_SLOPE 12.1, FFLUC_R_SQUARED 0.679, read-out: LUCIFERASE INFECTION ASSAY - IC50) is less than 5.06.
With `O=C(COc1ccc(Cl)cc1Br)c1ccc[nH]1`, the IC90 was more than 10 µM. Further, where the note is “FFLUC_HILL_SLOPE 12.1, FFLUC_R_SQUARED 0.341, HEPG2TOX_HILL_SLOPE 8.8, HEPG2TOX_R_SQUARED 0.689, read-out: LUCIFERASE INFECTION ASSAY - IC50”, the pIC50 is less than 5.00.
Turning to `Cc1ccc(Br)c(NS(=O)(=O)c2cccc(C(=O)Nc3cccc4c[nH]nc34)c2)c1`, the IC90 is more than 10 µM. Further, the pIC50 (FFLUC_HILL_SLOPE 12.1, FFLUC_R_SQUARED 0.239, PBLUC_HILL_SLOPE 20.2, PBLUC_R_SQUARED 0.144, read-out: LUCIFERASE INFECTION ASSAY - IC50) was 5.00.
As for `Clc1ccccc1CN(Cc1nc2ccccc2[nH]1)Cc1nc2ccccc2[nH]1`, the IC90 turned out to be 4.32 µM. Where the note is “FFLUC_HILL_SLOPE 12.2, FFLUC_R_SQUARED 0.134, HEPG2TOX_HILL_SLOPE 11.4, HEPG2TOX_R_SQUARED 0.932, PBLUC_HILL_SLOPE 13.3, PBLUC_R_SQUARED 0.326, read-out: LUCIFERASE INFECTION ASSAY - IC50”, the negative logarithm of the IC50 (pIC50) was 5.44.
In the case of `COc1ccc(-c2ccnn2-c2nc3ccccc3nc2C(F)(F)F)cc1`, the IC90 stood at 8.87 µM. The pIC50 (FFLUC_HILL_SLOPE 12, FFLUC_R_SQUARED 0.622, HEPG2TOX_HILL_SLOPE 8.32, HEPG2TOX_R_SQUARED 0.411, PBLUC_HILL_SLOPE 4.15, PBLUC_R_SQUARED 0.462, read-out: LUCIFERASE INFECTION ASSAY - IC50) is 5.28.
